These results are taken from US10787607B2, “High efficiency fluorescent compound and method for preparing the same” (SNU R&DB FOUNDATION, priority 2011, dated 2020).

The conditions of data set [1]: in ethanol; cited from earlier work.
Data set [2] relates to Caspase-3 and PARP in osteosarcoma cell line (U2OS). The experiment in a line: Western Blotting Test, osteosarcoma cell line (U2OS). It is filed as cell-based. The following applies: U2OS cells, 10 μM, FIG. 14. On the procedure: (§1) After a certain period of time, the degree of cell extinction is evaluated by examining the degree of expression of extinction and damage of a specific factor by using Western Blotting Test and the result is shown in FIG. 14.
(A western blot detects proteins with antibodies after separation by electrophoresis.)

The test system of data set [3] is Caspase-3 and PARP in breast epithelial cell line. The experiment in a line: Western Blotting Test, breast epithelial cell line. It is filed as cell-based. The following applies: breast epithelial cell line, 1, 10 and 100 μM, FIG. 14. On the procedure:
as §1

The test system of the next data set is breast epithelial cell. The experiment in a line: Trypan Blue Exclusion Test. It is filed as cell-based. Conditions: both test concentrations 1 μM and 10 μM, FIG. 13. On the procedure:
(§2) In the presence of a test compound or a comparative compound, a cell line is cultured for a certain period of time (about 72 hours) and then a cytotoxicity test is conducted. As a control group, a blank test is conducted in the same manner as above without adding any compound including the test compound and the comparative compound.

For data set [4], the system named is breast epithelial cell line. The experiment in a line: Cytomorphology Test (microscopic examination of cultured cells). It counts as cell-based. The following applies: cultured about 72 hours, FIG. 12. On the procedure: as §2

As for `CCN=c1cc2oc3cc(NCC)c(C)cc3c(-c3ccccc3C(=O)OCC)c-2cc1C.Cl` [rhodamin 6G], the “quantum yield of reference standard” value in data set [1] is on record as 0.95.
Turning to `COc1cc([C@@H]2c3cc4c(cc3[C@@H](O[C@@H]3O[C@@H]5CO[C@@H](C)O[C@H]5[C@H](O)[C@H]3O)[C@H]3COC(=O)[C@H]23)OCO4)cc(OC)c1O` [Etoposide], in data set [2], the “Western blot peaks from cell extinction and damage (Caspase-3, PARP)” value was “significantly remarkable peak at 17 kDa, 19 kDa and 89 kDa positions”.
For `CC(=O)/C=C/c1ccc2cc(O)cc(O)c2c1` [Example 1, (E)-4-(6,8-dihydroxynaphthalen-2-yl)but-3-en-2-one], the “Western blot peaks from cell extinction and damage (Caspase-3, PARP)” value in data set [3] was “no peak at 17 kDa, 19 kDa and 89 kDa positions”. In addition, in the data set on breast epithelial cell, the “number of cells alive (trypan blue) vs control group” value was “number of cells similar to that of the control group”. In addition, the “cytomorphology and number change of the cultured cell vs control group” value in data set [4] is recorded as “no significant difference from the control group”.
